This is an account of results in patent US6090780A (Chandon Prasad, priority 1999, dated 2000).

What all share (type): in vivo
For assay [1], the system named is C57BL mice. Description: Voluntary alcohol consumption in alcohol naive mice (two-bottle choice). The conditions noted are these: for % ETHANOL PREFERENCE (mean ± SEM): 7 days. The protocol:
Forty adult male C57BL mice were obtained from Jackson Laboratories and housed individually in light controlled rooms for a period of at least ten days after arrival with free access to Purina Chow and water. The lights were cycled on and off every twelve hour period. Mice were divided into four groups of ten. Each room was fitted with two 250 ml bottles having drip proof drinking spouts on both sides of a food bin containing Purina Chow. One bottle contained 6% (V/V) ethanol in water whereas the other bottle contained water. […] The two bottles were frequently exchanged with each other to minimize positional preference. Fluid intake from each bottle was recorded after 7 days.
Ethanol preference was calculated as ethanol intake/(ethanol intake+water intake)×100.

For assay [2], the system named is C57BL mice. Description: Voluntary alcohol consumption in alcohol experienced mice (two-bottle choice). The conditions noted are these: for ETHANOL PREFERENCE (%): 7 days. The protocol:
Forty adult male C57BL mice were obtained from Jackson Laboratories and housed individually in light controlled rooms for a period of at least ten days prior to beginning the experiment with free access to Purina Chow and water. The lights were cycled on and off every twelve hour period. The mice were divided into four groups of ten. Each room was fitted with two 250 ml bottles having drip proof drinking spouts on both sides of a food bin containing Purina Chow. Both bottles contained 6% (V/V) ethanol in water and were the only source of fluid available. Mice were allowed to drink for seven days. On the eighth day, one bottle containing ethanol in water was removed and replaced with a 250 ml bottle containing water. […] The bottles were frequently exchanged to discourage positional preference. Fluid intake from each bottle was recorded after an additional 7 days. % Ethanol preference was calculated for each group.

A further assay relates to Sprague-Dawley rats. Description: Effect of intraperitoneal and oral administration of CHP on food intake. The following applies: for food intake, mean ± SEM, n = 6: 7 h after 21 h fast; for effect on food consumption: up to 50 mg/Kg of body weight. The protocol: Thirty-six outbred adult male Sprague-Dawley rats, certified virus free, obtained from Hilltop Laboratories, New York, N.Y. were housed in a temperature and light controlled room for a period of at least seven days after arrival. Sprague-Dawley rats are white albino outbred rats. The temperature of the room was maintained at about 20-21° C. The lights in the room were cycled between on and off every twelve hours. The rats were allowed free access to Purina Chow food and water prior to beginning the experiment. For the experiment rats were divided into six groups of six rats each. […] The amount of CHP in each dose was based on the body weight of the individual rat. Rats were fasted for about 21 hours from food but not water. Oral dosages of CHP were administered using a gavage tube according to each rat group. The rats were then given access to Purina Chow and water for the next seven hours. Food intake during the seven hours was measured in grams per rat and averaged for each group. […] At the end of this period, the experiment was repeated using intraperitoneal administration.

The mark [3] stands for this setting: CHP 1 μg/ml fluid in each bottle.
Where [4] appears, read: CHP 5 μg/ml fluid in each bottle.
Where [5] appears, read: CHP 10 μg/ml fluid in each bottle.

Histidyl-proline diketopiperazine [CHP]: the “effect on average daily fluid intake” value in the assay with C57BL mice [1] (ANOVA: F=0.09, p=0.96) is “did not effect”. For the same substance, the “alcohol preference after CHP administration” value with C57BL mice [1] (ANOVA: F=3.73, p=0.019) is given as “dose dependence decrease”; with C57BL mice [2] (ANOVA: F=3.88, p=0.0195), “dose dependence decrease”. In addition, the “AVERAGE FLUID INTAKE” value came out at 2.9 mL/day in the assay on C57BL mice [1] (setting [3]), 2.8 mL/day in the assay on C57BL mice [1] (setting [4]) and 2.7 mL/day with C57BL mice [1] (setting [5]). The entries for the “% ETHANOL PREFERENCE (mean ± SEM)” value in the assay with C57BL mice [1] (setting [3]), with C57BL mice [1] (setting [4]) and with C57BL mice [1] (setting [5]) were 29 ± 6%, 23 ± 6% and 15%, respectively. The entries for the “ETHANOL PREFERENCE (%)” value with C57BL mice [2] (setting [3]), with C57BL mice [2] (setting [4]) and in the assay with C57BL mice [2] (setting [5]) were 58%, 54% and 40%, respectively. In addition, the “food intake, mean ± SEM, n = 6” value in the assay with Sprague-Dawley rats (intraperitoneal, 1 mg/kg of body weight) was determined as 17.6 ± 3.6 g/rat; with Sprague-Dawley rats (intraperitoneal, 5 mg/kg of body weight) it was 14.2 ± 0.7 g/rat; with Sprague-Dawley rats (intraperitoneal, 10 mg/kg of body weight) it was 14.1 ± 2.9 g/rat; with Sprague-Dawley rats (intraperitoneal, 20 mg/kg of body weight) it was 14.4 ± 1.0 g/rat; with Sprague-Dawley rats (intraperitoneal, 50 mg/kg of body weight) it was 14.7 ± 1.2 g/rat; in the assay on Sprague-Dawley rats (oral, 1 mg/kg of body weight), 14.3 ± 2.2 g/rat. The “food intake, mean ± SEM, n = 6” value is reported as 14.7 ± 1.2 g/rat in the assay on Sprague-Dawley rats (oral, 5 mg/kg of body weight); 13.1 ± 2.1 g/rat in the assay on Sprague-Dawley rats (oral, 10 mg/kg of body weight); 15.1 ± 2.3 g/rat with Sprague-Dawley rats (oral, 20 mg/kg of body weight); 15.7 ± 1.7 g/rat in the assay on Sprague-Dawley rats (oral, 50 mg/kg of body weight). Besides, the “effect on food consumption” value in the assay on Sprague-Dawley rats (intraperitoneal, ANOVA F=1.86, p=0.13) is on record as “no significant effect”; in the assay on Sprague-Dawley rats (oral, ANOVA F=0.92), “no significant effect”.
